Assay results taken from patent US20120107323A1, “KINASE PROTEIN BINDING INHIBITORS” (University of Florida, priority 2009, published 2012).

Columns and labels:
[1] = tested on: TE9 esophageal cancer cells; assay: Cell viability (MTT), TE9; assay type: cell-based; details: TE9, 72 hours; read-out: IC50 of INT2-31, cell viability
Procedure: (§1) Cell viability (MTT) and CFSE Proliferation assay: Cells were plated in 96-well plates and let adhere overnight. After cell treatment, cell viability was measured by 3-(4,5-dimethylthiazol-2-yl)-2,5-diphenyl tetrazolium bromide (MTT) assay (CellTiter 96® Aqueous, Promega, Madison, Wis.).
(§2) Cell viability and detachment assays: After cells were treated with siRNA transfection, cell viability was measured by 3-(4,5-dimethylthiazol2-yl)-2,5-diphenyl tetrazolium bromide (MTT) assay (CellTiter 96® AQueous, Promega, Madison, Wis.). Briefly, 20 μl of the tetrazolium compound was added to each well. The cells were then incubated at 37° C. for 1 h. The plate was read at 490 nm with a plate reader to determine the viability. In detachment assays, detached and attached cells were harvested separately and counted in a hemocytometer. The percentage of detachment was calculated by dividing the number of detached cells by the total number of cells. Apoptosis assays: After treatment, attached and detached cells were collected, counted and prepared for terminal uridine deoxynucleotidyl transferase (TUNEL) assay by utilizing an APO-BRDU kit (BD Pharmingen, San Diego, Calif.) according to the manufacturer's instructions. Stained cells were analyzed with a fluorescence-activated cell sorting-Calibur flow cytometer (BD Biosciences). […] Apoptotic cells were also analyzed by Hoechst staining. […]

[2] = tested on: KYSE70 esophageal cancer cells; assay: Cell viability (MTT), KYSE70; assay type: cell-based
Procedure: as §1
(§3) Cell viability and detachment assays: After cells were treated with siRNA transfection, cell viability was measured by 3-(4,5-dimethylthiazol2-yl)-2,5-diphenyl tetrazolium bromide (MTT) assay (CellTiter 96® AQueous, Promega, Madison, Wis.). Briefly, 20 μl of the tetrazolium compound was added to each well. The cells were then incubated at 37° C. for 1 h. The plate was read at 490 nm with a plate reader to determine the viability. In detachment assays, detached and attached cells were harvested separately and counted in a hemocytometer. The percentage of detachment was calculated by dividing the number of detached cells by the total number of cells. Apoptosis assays: After treatment, attached and detached cells were collected, counted and prepared for terminal uridine deoxynucleotidyl transferase (TUNEL) assay by utilizing an APO-BRDU kit (BD Pharmingen, San Diego, Calif.) according to the manufacturer's instructions. Stained cells were analyzed with a fluorescence-activated cell sorting-Calibur flow cytometer (BD Biosciences). Calculation of the percentage of apoptotic cells in the sample was completed with CellQuest software (BD Biosciences). Apoptotic cells were also analyzed by Hoechst staining. Hoechst 33342 ([…]) was added to the fixed cells and the specimens were mounted on glass coverslips. The slides were viewed under the Zeiss microscope for apoptotic nuclei. The percent of apoptotic cells was calculated as the ratio of apoptotic cells to total number of cells.
(§4) In addition, the effect of INT2-31 on cell viability of esophageal, pancreatic and breast cancer cell lines was analyzed and the IC50 value for each cell line was determined, as shown in Table 1. […] Similar to melanoma results, INT2-31 inhibits viability more in cancer cells compared to normal cells. Sensitivity of the cells to INT2-31 varied and directly correlated to the FAK and IGF-1R expression level of the cells.

[3] = tested on: Panc-1 pancreatic cancer cells; assay: Cell viability (MTT), Panc-1; assay type: cell-based
Procedure: as §1, §3, §4

[4] = tested on: Miapaca-2 pancreatic cancer cells; assay: Cell viability (MTT), Miapaca-2; assay type: cell-based
Procedure: as §1, §2

FAK = FAK (Homo sapiens, UniProt Q05397); assay: Kinase profiler screening, FAK; assay type: biochemical; details: 1 μM compound, 10 μM ATP
Sequence of FAK (Q05397 whole entry): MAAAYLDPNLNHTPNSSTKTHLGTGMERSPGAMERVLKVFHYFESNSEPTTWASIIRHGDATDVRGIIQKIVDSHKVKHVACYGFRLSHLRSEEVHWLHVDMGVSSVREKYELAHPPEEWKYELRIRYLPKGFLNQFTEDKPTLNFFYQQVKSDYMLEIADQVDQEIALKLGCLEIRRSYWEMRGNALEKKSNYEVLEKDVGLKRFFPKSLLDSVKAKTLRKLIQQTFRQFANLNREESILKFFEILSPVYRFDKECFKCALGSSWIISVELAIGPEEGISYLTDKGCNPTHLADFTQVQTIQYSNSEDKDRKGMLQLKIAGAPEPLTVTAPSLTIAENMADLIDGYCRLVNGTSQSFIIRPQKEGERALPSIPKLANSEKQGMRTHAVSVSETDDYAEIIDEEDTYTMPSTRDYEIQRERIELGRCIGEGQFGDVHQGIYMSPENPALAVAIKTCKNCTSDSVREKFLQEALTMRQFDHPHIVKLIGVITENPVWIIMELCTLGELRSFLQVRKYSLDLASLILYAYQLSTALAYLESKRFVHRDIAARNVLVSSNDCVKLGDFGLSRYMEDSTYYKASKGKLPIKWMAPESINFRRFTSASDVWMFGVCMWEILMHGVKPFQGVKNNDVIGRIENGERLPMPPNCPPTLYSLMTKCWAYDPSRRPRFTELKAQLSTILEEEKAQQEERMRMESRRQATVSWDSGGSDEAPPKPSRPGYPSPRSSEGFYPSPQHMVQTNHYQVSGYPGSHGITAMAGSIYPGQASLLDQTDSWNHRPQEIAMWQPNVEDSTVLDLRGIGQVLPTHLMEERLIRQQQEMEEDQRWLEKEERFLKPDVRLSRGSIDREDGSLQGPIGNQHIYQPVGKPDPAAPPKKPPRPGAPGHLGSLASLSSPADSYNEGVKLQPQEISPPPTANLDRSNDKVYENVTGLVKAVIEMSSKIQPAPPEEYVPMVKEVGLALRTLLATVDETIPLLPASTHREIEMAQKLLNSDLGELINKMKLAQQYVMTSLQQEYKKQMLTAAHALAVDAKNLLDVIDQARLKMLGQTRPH
Procedure: Kinase Profiler Screening: Kinase specificity screening was performed with Invitrogen's SelectScreen® Kinase Profiling Services http://www.invitrogen.com/site/us/en/home/Products-and-Services/Services/Discoverv-Research/SelectScreen-Profiling-Service/SelectScreen-Kinase-Profiling-Service.html. The screening was performed with 1 μM compound, INT2-31, 10 μM ATP, and kinase substrates against ten recombinant kinases according to Z′-LYTET™ Kinase Assay. For PI3 kinase activity, 100 μM ATP, and kinase substrate were utilized with the Invitrogen Adapta® Universal Kinase Assay protocol. Tumor Growth in Nude Mice in vivo: Six week old athymic, female nude mice were purchased from Harlan Laboratory. The mice were maintained in the animal facility, and all experiments were performed in compliance with NIH animal-use guidelines and under an IACUC approved protocol. Melanoma cells were injected, 5×10^6 cells, subcutaneously. When the tumor size reached 100 mm^3, the INT2-31 was introduced by intraperitoneal injection at a dose of 15 mg/kg daily for 21 days. Tumor diameters were measured with calipers, and tumor volume in mm^3 was calculated using the formula [(width)^2×length]/2. At the end of experiment, tumor weight and volume were determined.

[5] = tested on: esophageal patient #5 adenocarcinoma tumor; assay: Esophageal patient #5 xenograft; assay type: in vivo, mice
Excerpt: For tumor samples from human patients with esophageal or pancreatic cancer, the University of Florida IACUC approved the following protocol (IACUC Study #2000902767). A total of 25 patients, 10 with pancreatic cancer and 15 with esophageal cancer have been identified and implanted into nude mice. Initially small pieces (0.3×0.3×0.3 cm) from fresh pancreatic and esophageal human tumor samples were obtained from surgical specimens of patients operated at the University of Florida Shands Hospital, and implanted subcutaneously in-group of 2 mice for each patient. For esophageal cancer specimens, when one of them has reached 1.5 cc, it was excised and was cut into small pieces of (0.3×0.3×0.3 cm), and transplanted subcutaneously into another 10 mice. When tumors reached ˜100 mm^3, mice were randomized in the following 2 groups, with 5 mice in each group: • Group 1: Control: no treatment. • Group 2: INT2-31 (Compound 31): 50 mg/kg/day in 50 μL by i.p administration for 21 days.
Mice were euthanized 30-40 days after tumor innoculation and tumor and tissue collected. For inhibition of tumor growth in our subcutaneous model, tumor volumes (length×width×height×p/6) and body weights were determined daily including weekends and holidays, to monitor tumor growth and evaluate overall clinical condition, taking into account weight loss and indications of pain, distress, or abnormal behavior and physiology. Experiments were terminated when the mean control tumor volume was 1.5 cc (approximately 30-40 days).
Immunohistochemistry: Xenograft tumor tissue was fixed in 10% formalin and embedded in paraffin. For Ki-67 staining, samples underwent deparaffinization and antigen retrieval and incubated with the primary antibody, Ki-67 (Dako M7240), at 1:200 concentration overnight at 4° C. The tissues were stained with the chromogen DAB and counterstained with hematoxylin and 1% TBS.
Subsequently, we evaluated the inhibition of in vivo tumor growth of esophageal patient #5 specimen was evaluated. […]

Compound: CSc1ncnc2c1ccn2C1O[C@H](COP(=O)(O)O)[C@@H](O)[C@H]1O (stereo partly drawn) [INT2-31, 4-(Methylthio)-7-(5-O-phosphono-D-ribofuranosyl)-{7H-Pyrrolo[2,3-d]pyrimidine}]
- IC50 [1]: 3.6 µM
- IC50 ([2]; Homo sapiens, KYSE-70, KYSE70, 72 hours, read-out: IC50 of INT2-31, cell viability): 4.6 µM
- effect of combination with 5-FU on cell viability ([2]; KYSE 70, 0.5 and 1 μM INT2-31): synergistic effects
- sensitivity of cells to single-agent treatment ([2]; KYSE 70, 72 hours): sensitive
- IC50 ([3]; Homo sapiens, Panc-1, 72 hours, read-out: IC50 of INT2-31, cell viability): 6.7 µM
- cell viability (in words) ([3]; Panc-1, 72 hours): inhibits the cell viability
- effect of combination with 5-FU on cell viability ([3]; pancreatic cancer cells, 1 μM INT2-31): synergistic effects
- effect of combination with gemcitabine on cell viability ([3]; pancreatic cancer cells, data not shown): only additive
- IC50 ([4]; Homo sapiens, MIA PaCa-2, Miapaca-2, 72 hours, read-out: IC50 of INT2-31, cell viability): 4.73 µM
- cell viability (in words) ([4]; MiaPaCa-2, 72 hours): inhibits the cell viability
- kinase activity of FAK (FAK): did not inhibit
- body weights between animals in each group ([5]; 50 mg/kg daily intraperitoneal): no significant difference
- tumor growth compared to PBS control ([5]; 50 mg/kg daily intraperitoneal, 21 days, p<0.05): significant decrease
- percent of cells reactive to Ki67 ([5]; 50 mg/kg vs PBS group): significantly decreased
